The target in this assay is T1, GPR73 (prokineticin 1 receptor) (Homo sapiens, UniProt Q8TCW9).
T1 construct: expressed in transfected cells; host or cells: HEK 293
Description: PK1 functional assay: Ca2+ mobilization screening for PK1 antagonists on the FLIPR. It is filed as cell-based. The conditions noted are these: HEK 293 GPR73 cells, multiple values = multiple testing; for inhibition at 10 µM: HEK293, 10 μM compound, read-out: Ca^2+ Mobilization % Inh @ 10 μM; for IC50: PK1 ligand preparation at its EC50, read-out: Ca^2+ Mobilization IC50; for Ca^2+ Mobilization % Inh @ 10 μM: 10 μM compound. As for the experimental part:
At a time of 24 h prior to running the assay, in cell culture media (DMEM containing high Glucose and L-glutamine, 10% FBS, 1% Pen/Streptomycin, 1% Sodium Pyruvate, 20 mM HEPES, Zeocin 200 mg/L), 100 μL of 1.3*10^6/ml HEK 293 GPR73 (prokineticin 1 receptor) expressing cells were plated in a 96 well poly-d-lysine coated plate (Costar), and incubated at 37 C and 5% CO2. On the day in which the assay was run, the media was removed and 200 μL of 5× Calcium Plus Dye (Molecular Devices) which was previously resuspended with 200 mL of assay buffer [HBSS w/Ca^2+ and Mg^2+ w/o phenol red, 20 mM HEPES, 0.1% BSA, 10 mL probenecid (710 mg probenecid in 5 mL of 1N NaOH, to which was then added 5 mL HBSS containing 20 mM HEPES)] was added to each well of the 96-well plate. The plate was incubated at 37 C and 5% CO2 for 30 min in dark. The plate was removed and allowed to reach RT for 15 min in the dark. The assay was then run on the FLIPR. In Brief: base line read for 1 min, compound added (25 μL) and incubated for 4 min, 15 seconds, PK1 ligand preparation added (25 μL) for a final concentration of a previously determined EC50 and fluorescence was counted for 1 min, 45 seconds. Baseline is described as the amount of relative fluorescence read when buffer alone is added to cells. Baseline was subtracted from all wells. Percent of control was calculated as follows:
(Baseline subtracted well value is divided by baseline subtracted max value)*100. Percent inhibition is 100 minus the percent of control value.
The IC50 is defined as the amount of a given compound required to inhibit 50% of the maximum signal that is generated by the concentration of PK1 preparation used in our assay. IC50 values were calculated using GraphPad Prism.
For orientation: A change in cytosolic calcium serves as a functional read-out for many receptors and channels.

Where “and” joins values, the source holds several entries; their conditions need not be identical. Equal values may be shown once.

T1 sequence (Q8TCW9 whole entry, species assumed): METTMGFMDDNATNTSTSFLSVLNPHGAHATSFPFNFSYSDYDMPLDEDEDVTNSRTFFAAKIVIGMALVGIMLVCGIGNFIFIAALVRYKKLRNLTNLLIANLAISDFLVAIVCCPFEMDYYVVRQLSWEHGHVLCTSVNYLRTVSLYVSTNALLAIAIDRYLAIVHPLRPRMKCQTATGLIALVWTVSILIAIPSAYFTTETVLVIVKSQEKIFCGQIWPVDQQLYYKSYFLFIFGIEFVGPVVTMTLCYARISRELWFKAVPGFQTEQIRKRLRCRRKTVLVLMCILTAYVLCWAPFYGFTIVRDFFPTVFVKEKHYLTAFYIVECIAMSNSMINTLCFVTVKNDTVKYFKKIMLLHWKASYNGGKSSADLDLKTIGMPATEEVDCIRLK

Turning to `CCCCCCn1c(NCc2cnc(C)cc2C)nc(=O)n(Cc2ccc(OC)cc2)c1=O` [Cpd 103], the inhibition at 10 µM turned out to be 41% and the IC50 was over 10000 nM.

In the case of `Nc1cccc(CNc2nc(=O)n(Cc3ccc(F)cc3)c(=O)n2Cc2ccc(OC(F)F)cc2)n1` [Cpd 156], the inhibition at 10 µM was found to be 70% and the IC50 was found to be 3220 nM.

For the molecule `COCCNc1ncccc1CNc1nc(=O)n(CCOc2ccccc2)c(=O)n1Cc1ccc(OC)cc1` [Cpd 72], the inhibition at 10 µM came out at 81% and the IC50 amounted to 1170 nM.

As for `COc1ccc(Cn2c(NCc3cnc(C)nc3N)nc(=O)n(Cc3ccc(OC)cc3)c2=O)cc1` [Cpd 248], the inhibition at 10 µM worked out at 103% and the IC50 was found to be 34 nM.

For the molecule `Cc1cc(CO)c(CNc2nc(=O)n(Cc3ccc4c(c3)CCO4)c(=O)n2Cc2ccc(OC(F)F)cc2)c(N)n1` [Cpd 251], the inhibition at 10 µM was determined as 93% and the IC50 was 225 nM.

In the case of `Cc1cc(C)c(CNc2nc(=O)n(Cc3ccc4c(c3)CCO4)c(=O)n2Cc2ccc3c(c2)CCO3)c(N)n1` [Cpd 185, 6-[(2-Amino-4,6-dimethyl-pyridin-3-ylmethyl)-amino]-1,3-bis-(2,3-dihydro-benzofuran-5-ylmethyl)-1H-[1,3,5]triazine-2,4-dione], the “Ca^2+ Mobilization % Inh @ 10 μM” value was 94% and 98%; the inhibition at 10 µM is 92%; the IC50 was 15 nM and 80 nM and 118 nM.

`COc1ccc(Cn2c(NCc3cccc(N)n3)nc(=O)n(Cc3ccc(OC)cc3)c2=O)cc1` [Cpd 115, 6-[(6-Amino-pyridin-2-ylmethyl)-amino]-1,3-bis-(4-methoxy-benzyl)-1H-[1,3,5]triazine-2,4-dione]: the inhibition at 10 µM is 98% and the half-maximal inhibitory concentration (IC50) was 244 nM.

Take `COc1ccc(Cn2c(=O)nc(NCc3cccnc3N)n(Cc3ccc4c(c3)CCO4)c2=O)cc1` [Cpd 125]: the “Ca^2+ Mobilization % Inh @ 10 μM” value came out at 99%; the inhibition at 10 µM amounted to 97%; the IC50 was 54 nM and 14 nM.

Take `CCCNc1ncccc1CNc1nc(=O)n(Cc2ccc(OC)cc2)c(=O)n1Cc1ccc(OC)cc1` [Cpd 34]: the inhibition at 10 µM was found to be 98% and the IC50 was determined as 81 nM.

Consider `Cc1cc(C)c(CNc2nc(=O)n(Cc3ccc4occc4c3)c(=O)n2Cc2ccc(OC(F)F)cc2)cn1` [Cpd 178], for which the inhibition at 10 µM amounted to 46% and the IC50 was found to be 8650 nM.

Consider `COc1ccc(Cn2c(=O)nc(NCc3cnc(C)cc3C)n(Cc3ccc(OC)c([N+](=O)[O-])c3)c2=O)cc1` [Cpd 136], for which the “Ca^2+ Mobilization % Inh @ 10 μM” value worked out at 102%; the inhibition at 10 µM was 92%; the IC50 was 15 nM and 34 nM.

Turning to `COc1ccc(Cn2c(NCc3cnc(C)cc3C)nc(=O)n(Cc3ccc(C(F)(F)F)cc3)c2=O)cc1` [Cpd 110], the inhibition at 10 µM is 48% and the IC50 came out at 9070 nM.

Turning to `COc1ccc(Cn2c(NCc3cccnc3N3CCNCC3)nc(=O)n(Cc3ccc(OC)cc3)c2=O)cc1` [Cpd 12], the inhibition at 10 µM is 74% and the concentration for half-maximal inhibition (IC50) amounted to 1290 nM.

`COc1ccc(Cn2c(NCc3cccnc3N)nc(=O)n(Cc3ccccc3OC)c2=O)cc1` [Cpd 143]: the inhibition at 10 µM was 31% and the IC50 was over 10000 nM.

As to `COc1ccc(Cn2c(NCc3cccnc3N)nc(=O)n(Cc3cccc(F)c3)c2=O)cc1` [Cpd 55], the inhibition at 10 µM stood at 44% and the IC50 was over 10000 nM.

With `COc1ccc(Cn2c(=O)nc(NCc3c(C)cc(C)nc3N)n(Cc3cccc4[nH]ccc34)c2=O)cc1` [Cpd 155, 6-[(2-Amino-4,6-dimethyl-pyridin-3-ylmethyl)-amino]-1-(1H-indol-4-ylmethyl)-3-(4-methoxy-benzyl)-1H-[1,3,5]triazine-2,4-dione], the “Ca^2+ Mobilization % Inh @ 10 μM” value amounted to 100%; the inhibition at 10 µM came out at 98%; the IC50 was 2 nM and 7 nM.

Take `COc1ccc(Cn2c(NCc3cccnc3NCCN(C)C)nc(=O)n(Cc3ccc(OC)cc3)c2=O)cc1` [Cpd 51]: the inhibition at 10 µM came to 93% and the IC50 is 207 nM.

Take `COc1ccc(Cn2c(=O)nc(NCc3cccnc3N)n(Cc3ccc(OC)c(F)c3)c2=O)cc1` [Cpd 203]: the inhibition at 10 µM turned out to be 103% and the IC50 came to 60 nM.

On to `COc1ccc(Cn2c(NCc3cccnc3N)nc(=O)n(Cc3ccc(OC(F)(F)F)cc3)c2=O)cc1` [Cpd 45], for which the inhibition at 10 µM worked out at 40% and the IC50 is over 10000 nM.

Take `COc1ccc(Cn2c(NCc3cccnc3N)nc(=O)n(Cc3ccc(SC)cc3)c2=O)cc1` [Cpd 24]: the inhibition at 10 µM turned out to be 60% and the IC50 was found to be 115 nM.

In the case of `COc1ccc(Cn2c(NCc3cnc(C)cc3C)nc(=O)n(Cc3cccc(F)c3)c2=O)cc1` [Cpd 112], the inhibition at 10 µM stood at 74% and the IC50 was 2550 nM.

`COc1ccc(Cn2c(=O)nc(NCc3cccnc3N)n(Cc3ccc(OC(F)F)cc3)c2=O)cc1` [Cpd 35, 6-[(2-Amino-pyridin-3-ylmethyl)-amino]-1-(4-difluoromethoxy-benzyl)-3-(4-methoxy-benzyl)-1H-[1,3,5]triazine-2,4-dione]: the inhibition at 10 µM was 85% and the IC50 amounted to 34 nM.

In the case of `COc1ccc(Cn2c(NCc3cnc(C)cc3C)nc(=O)n(Cc3ccc4sccc4c3)c2=O)cc1` [Cpd 146], the inhibition at 10 µM was 80% and the IC50 was found to be 2140 nM.

For the molecule `COc1ccc(Cn2c(NCc3cccc(N)n3)cc(=O)n(Cc3ccc(OC)cc3)c2=O)cc1` [Cpd 148, 6-[(6-Amino-pyridin-2-ylmethyl)-amino]-1,3-bis-(4-methoxy-benzyl)-1H-pyrimidine-2,4-dione], the inhibition at 10 µM was determined as 86% and the IC50 turned out to be 503 nM.

With `COc1ccc(Cn2c(CNCc3cccnc3N)cc(=O)n(Cc3ccc(OC)cc3)c2=O)cc1` [Cpd 7, 6-{[(2-Amino-pyridin-3-ylmethyl)-amino]-methyl}-1,3-bis-(4-methoxy-benzyl)-1H-pyrimidine-2,4-dione], the inhibition at 10 µM turned out to be 60% and the IC50 was found to be 6200 nM.

Consider `COc1ccc(Cn2c(NCc3cccnc3N3CCOCC3)nc(=O)n(Cc3ccc(F)cc3)c2=O)cc1` [Cpd 17], for which the inhibition at 10 µM turned out to be 73% and the half-inhibitory concentration (IC50) was found to be 2430 nM.

As for `Cc1cc(C)c(CNc2nc(=O)n(Cc3ccc4c(c3)nnn4C)c(=O)n2Cc2ccc(OC(F)F)cc2)c(N)n1` [Cpd 221], the “Ca^2+ Mobilization % Inh @ 10 μM” value amounted to 96%; the inhibition at 10 µM was 98%; the IC50 was 45 nM and 72 nM.

For the molecule `Cc1cc(C)c(CNc2nc(=O)n(Cc3ccc4sccc4c3)c(=O)n2Cc2ccc(OC(F)F)cc2)c(N)n1` [Cpd 174], the inhibition at 10 µM worked out at 87% and the IC50 was 290 nM.

For the molecule `COc1ccc(Cn2c(NC(C)c3ccccn3)nc(=O)n(Cc3ccc(OC)cc3)c2=O)cc1` (centres unmarked) [Cpd 234], the inhibition at 10 µM was 66% and the IC50 came out at 2590 nM.

`Cc1cc(C)c(CNc2nc(=O)n(Cc3ccccc3C#N)c(=O)n2Cc2ccc(OC(F)F)cc2)cn1` [Cpd 180]: the inhibition at 10 µM is 37% and the IC50 is over 10000 nM.

For the molecule `COCCCCCn1c(NCc2cccnc2N)nc(=O)n(Cc2ccc(OC(F)F)cc2)c1=O` [Cpd 257], the inhibition at 10 µM stood at 76% and the IC50 is 1520 nM.

Take `COc1ccc(Cn2c(NCc3cccnc3N)nc(=O)n(Cc3ccc(Cl)cc3)c2=O)cc1` [Cpd 231]: the inhibition at 10 µM is 89% and the IC50 is 245 nM.

In the case of `COc1ccc(Cn2c(NCc3cccnc3N)nc(=O)n(CCc3c[nH]c4ccccc34)c2=O)cc1` [Cpd 119], the inhibition at 10 µM amounted to 40% and the IC50 was over 10000 nM.

Broadly, the IC50 is the concentration needed to halve the response being measured.

The values are drawn from US20080287445A1, “Prokineticin 2 receptor antagonists” (priority 2005, published 2008).
